The supplement of paper PMC13380429

What was measured:
Settings in all cases: 72 h
Caco-2 [1] = assay: cell viability relative to DMSO; higher = less toxic
Calu-3 [2] = assay: as above
HepG2 [3] = assay: as above
U2OS [4] = assay: as above
Caco-2 [5] = assay: relative viability EC50 (midpoint between 100% and the lowest measured viability); higher = less toxic
Calu-3 [6] = assay: as above
HepG2 [7] = assay: as above
U2OS [8] = assay: as above
Caco-2 [9] = assay: drug sensitivity score (DSS) for viability; higher = more toxic; extreme values may be limits of the assay
Calu-3 [10] = assay: as above
HepG2 [11] = assay: as above
U2OS [12] = assay: as above
Vero E6 [13] = assay: cell viability relative to DMSO; higher = less toxic
Vero E6 [14] = assay: relative viability EC50 (midpoint between 100% and the lowest measured viability); higher = less toxic
Vero E6 [15] = assay: drug sensitivity score (DSS) for viability; higher = more toxic; extreme values may be limits of the assay

Compound	cell viability (Caco-2 [1]; 1 nM)	cell viability (Caco-2 [1]; 10 nM)	cell viability (Caco-2 [1]; 100 nM)	cell viability (Caco-2 [1]; 1000 nM)	cell viability (Caco-2 [1]; 10000 nM)	cell viability (Calu-3 [2]; 1 nM)	cell viability (Calu-3 [2]; 10 nM)	cell viability (Calu-3 [2]; 100 nM)	cell viability (Calu-3 [2]; 1000 nM)	cell viability (Calu-3 [2]; 10000 nM)	cell viability (HepG2 [3]; 1 nM)	cell viability (HepG2 [3]; 10 nM)	cell viability (HepG2 [3]; 100 nM)	cell viability (HepG2 [3]; 1000 nM)	cell viability (HepG2 [3]; 10000 nM)	cell viability (U2OS [4]; 1 nM)	cell viability (U2OS [4]; 10 nM)	cell viability (U2OS [4]; 100 nM)	cell viability (U2OS [4]; 1000 nM)	cell viability (U2OS [4]; 10000 nM)	relative viability EC50 (Caco-2 [5])	relative viability EC50 (Calu-3 [6])	relative viability EC50 (HepG2 [7])	relative viability EC50 (U2OS [8])	drug sensitivity score (Caco-2 [9])	drug sensitivity score (Calu-3 [10])	drug sensitivity score (HepG2 [11])	drug sensitivity score (U2OS [12])	cell viability (Vero E6 [13]; 1 nM)	cell viability (Vero E6 [13]; 10 nM)	cell viability (Vero E6 [13]; 100 nM)	cell viability (Vero E6 [13]; 1000 nM)	cell viability (Vero E6 [13]; 10000 nM)	relative viability EC50 (Vero E6 [14])	drug sensitivity score (Vero E6 [15])
Cc1c(N)cccc1Cn1ccc(OCCc2cccs2)cc1=O	91.2%	91.6%	91.1%	98.5%	84.3%	95.9%	100%	106%	102%	93.4%	93.3%	104%	94.1%	99.8%	93.2%	99.5%	101%	95.4%	97.1%	95%	> 10 µM	> 10 µM	> 10 µM	> 10 µM	0	0	0	0	–	–	–	–	–	–	–
Cn1c(-c2ccccc2)nnc1S(C)(=O)=O	93%	85.8%	103%	103%	103%	–	–	–	–	–	97.4%	99.1%	99.1%	93.9%	94.5%	99.4%	96.9%	96.4%	99.3%	103%	> 10 µM	–	> 10 µM	> 10 µM	0	–	0	0	89.6%	92.9%	99.3%	94.9%	105%	> 10 µM	0
Cc1ccc([N+](=O)[O-])cc1O [2-methyl-5-nitrophenol]	96.9%	105%	101%	94.3%	95.3%	–	–	–	–	–	106%	91%	99.4%	100%	102%	108%	96%	101%	96.1%	102%	> 10 µM	–	> 10 µM	> 10 µM	0	–	0	0	99.9%	94.4%	94.3%	98.6%	96.2%	> 10 µM	0
Nc1c2ccccc2nc2ccccc12 [9-aminoacridine]	103%	115%	96.2%	134%	60.5%	94.4%	92.4%	105%	110%	64.6%	93.5%	96.5%	99.8%	88.1%	5.5%	94.6%	98%	95%	99.8%	34.9%	–	–	2.14 µM	3.14 µM	1.1	1.2	7.2	3.6	106%	104%	108%	86.5%	20.3%	1.89 µM	6.6
O=C(N[C@H](Cc1ccccc1)C(=O)O)c1sc2cc(F)ccc2c1Cl [CU-CPT-4a]	99.3%	102%	91.1%	93.5%	102%	–	–	–	–	–	107%	106%	92.7%	90.1%	100%	97.2%	97.1%	94.4%	98.2%	96.7%	> 10 µM	–	> 10 µM	> 10 µM	0	–	0	0	107%	103%	102%	99.1%	104%	> 10 µM	0
CCCCC(=O)NCCc1c(Cc2ccccc2)[nH]c2ccccc12 [DH-97]	102%	101%	96.8%	92.3%	96%	–	–	–	–	–	90.8%	100%	100%	105%	103%	100%	94.7%	99.9%	95.1%	96.7%	> 10 µM	–	> 10 µM	> 10 µM	0	–	0	0	102%	98.7%	99.8%	97%	93.8%	> 10 µM	0
CCCCCCN(CCCCCC)C(=O)Cc1c(-c2ccc(Cl)cc2)[nH]c2ccc(Cl)cc12 [FGIN-1-43]	101%	102%	101%	93.5%	86.8%	91.5%	106%	99.4%	101%	103%	104%	94.9%	106%	98.2%	97%	98.4%	103%	103%	104%	95.2%	> 10 µM	> 10 µM	> 10 µM	> 10 µM	0.5	0	0	0	–	–	–	–	–	–	–
CN1CCC(NC(=O)c2cc(-c3c(O)cc(O)cc3Oc3ccc([N+](=O)[O-])cc3)on2)CC1 [NMS-E973]	99.1%	97.8%	101%	61.3%	33.7%	93.7%	101%	90.4%	68.4%	44%	108%	101%	55%	0.9%	0.9%	94.2%	103%	99.5%	28.2%	3.7%	0.874 µM	0.669 µM	0.108 µM	0.65 µM	8.3	7	23.6	13.6	109%	100%	106%	108%	62.2%	–	1.4
Cc1nnc(-c2ccc3occ(-c4ccc([S+](C)[O-])cc4)c3c2)o1 (centres undefined) [TCS2002]	103%	96.7%	98.5%	108%	108%	–	–	–	–	–	94%	97.2%	99.3%	93%	112%	102%	103%	101%	99.3%	98.5%	> 10 µM	–	> 10 µM	> 10 µM	0	–	0	0	96.1%	95.9%	99.1%	90.6%	101%	> 10 µM	0
c1ccc(C(NCc2cccnc2)(c2ccccc2)c2ccccc2)cc1 [UCL-2077]	101%	103%	96.7%	103%	91.4%	96.7%	86.1%	89.6%	94.2%	94.8%	97.4%	104%	97.3%	92.6%	94.6%	96.9%	98.5%	101%	106%	103%	> 10 µM	> 10 µM	> 10 µM	> 10 µM	0	0	0	0	–	–	–	–	–	–	–
O=C(O[C@H]1C[N+]2(CCCOc3ccccc3)CCC1CC2)C(O)(c1cccs1)c1cccs1 [aclidinium]	105%	87.8%	99.6%	94.3%	104%	–	–	–	–	–	93.5%	98.9%	91.8%	101%	92.9%	98.4%	95.9%	97.1%	97.2%	99.1%	> 10 µM	–	> 10 µM	> 10 µM	0	–	0	0	103%	95.5%	101%	96.6%	98.7%	> 10 µM	0
NC(=O)NC1NC(=O)NC1=O (centres undefined) [allantoin]	102%	109%	96.3%	100%	93.5%	–	–	–	–	–	114%	107%	104%	99.9%	95.5%	99%	102%	99.5%	103%	97.8%	> 10 µM	–	> 10 µM	> 10 µM	0	–	0	0	108%	98.5%	103%	102%	102%	> 10 µM	0
O=C(O)CN1C(=O)c2cccc3cccc(c23)C1=O [alrestatin]	99%	95.2%	101%	96.7%	107%	–	–	–	–	–	95.4%	102%	90.7%	98%	101%	98.9%	96.6%	96.1%	102%	105%	> 10 µM	–	> 10 µM	> 10 µM	0	–	0	0	94.8%	102%	105%	96.6%	101%	> 10 µM	0
OC[C@H]1O[C@@H](Oc2ccc(O)cc2)[C@H](O)[C@@H](O)[C@@H]1O [arbutin]	95.7%	101%	105%	96%	103%	–	–	–	–	–	99.2%	109%	98.6%	105%	103%	97.9%	102%	102%	97.5%	108%	> 10 µM	–	> 10 µM	> 10 µM	0	–	0	0	98.6%	98%	91.6%	94.6%	94.5%	> 10 µM	0
CNC1CCCN(c2c(F)cc3c(=O)c(C(=O)O)cn(C4CC4)c3c2OC)C1 (centres undefined) [balofloxacin]	105%	98.3%	98.4%	93.3%	99.9%	104%	94.8%	101%	97.7%	102%	114%	97.5%	93.1%	104%	104%	113%	102%	97.5%	103%	93.2%	> 10 µM	> 10 µM	> 10 µM	> 10 µM	0	0	0	0	–	–	–	–	–	–	–
CCN(CCCOc1ccc2c(Nc3cc(CC(=O)Nc4cccc(F)c4)[nH]n3)ncnc2c1)CCOP(=O)(O)O [barasertib]	99.4%	99.7%	79.1%	102%	82.9%	112%	94.2%	102%	92.2%	91.3%	93.4%	94.7%	70.7%	82.9%	75%	101%	101%	98%	100%	89.7%	> 10 µM	> 10 µM	–	> 10 µM	0.4	0	6	0	94.3%	96.9%	101%	93.7%	74.2%	–	1.9
